According to patent publication US8193361B2, “I-alkynyl 2-aryloxyalkylamides and their use as fungicides” (Syngenta Limited, priority 2004, dated 2012):

What was measured:
[1] = system: Puccinia recondita f. sp. tritici; experiment: Leaf disk assay, Puccinia recondita f. sp. tritici (wheat brown rust), preventive; type: in vivo; details: 200 ppm; wheat leaf segments; assessed nine days after inoculation
Method: The compounds were tested in a leaf disk assay, with methods described below. The test compounds were dissolved in DMSO and diluted into water to 200 ppm. In the case of the test on Pythium ultimum, they were dissolved in DMSO and diluted into water to 20 ppm.
Erysiphe graminis f. sp. hordei (barley powdery mildew): Barley leaf segments were placed on agar in a 24-well plate and sprayed with a solution of the test compound. After allowing to dry completely, for between 12 and 24 hours, the leaf disks were inoculated with a spore suspension of the fungus. After appropriate incubation the activity of a compound was assessed four days after inoculation as preventive fungicidal activity. Erysiphe graminis f. sp. tritici (wheat powdery mildew): Wheat leaf segments were placed on agar in a 24-well plate and sprayed with a solution of the test compound. After allowing to dry completely, for between 12 and 24 hours, the leaf disks were inoculated with a spore suspension of the fungus. After appropriate incubation the activity of a compound was assessed four days after inoculation as preventive fungicidal activity. […] After appropriate incubation the activity of a compound was assessed nine days after inoculation as preventive fungicidal activity. […] After appropriate incubation the activity of a compound was assessed four days after inoculation as preventive fungicidal activity.

Pyricularia oryzae = type: in vivo; details: 200 ppm; rice leaf segments; assessed four days after inoculation

| SMILES | control of fungal infection [1] | control of fungal infection (Pyricularia oryzae) |
| --- | --- | --- |
| C#CC(C)(C)NC(=O)C(Oc1ccc2oc3ccccc3c2c1)SC (centres unmarked) [1 (16)] | at least 60% |  |
| CC#CC(C)(C)NC(=O)C(Oc1ccc2oc3ccccc3c2c1)SC (centres unmarked) [4 (16), 2-(dibenzofuranyl-2-oxy)-2-methylthio-N-(2-methylpent-3-yn-2-yl)acetamide] |  | at least 60% |
